From patent US20190284192A1, “NITROGENOUS MACROCYCLIC COMPOUND, PREPARATION METHOD THEREFOR, PHARMACEUTICAL COMPOSITION AND APPLICATION THEREOF” (LUOXIN PHARMACEUTICAL (SHANGHAI) CO., LTD., priority 2016, published 2019)
Structures can show the parent of a compound that is named as a salt.

Key:
[1] = target: T1, BRD4 (BD1) (Homo sapiens, UniProt O60885); assay: BRD4 (BD1) bromodomain binding, HTRF; conditions: 2 h incubation at r.t.
T1 construct: Each member comprises two tandem bromodomains (BD1 and BD2) for recognizing the acetylated lysine residues

[2] = target: T2, BRD4 (BD2) (Homo sapiens, UniProt O60885); assay: BRD4 (BD2) bromodomain binding, HTRF; conditions: 2 h incubation at r.t.
T2 construct: Each member comprises two tandem bromodomains (BD1 and BD2) for recognizing the acetylated lysine residues

[3] = tested on: MV-4-11 cells; assay: Inhibitory effect on MV-4-11 cells (CellTiter-Glo); type: cell-based; conditions: Homo sapiens, MV4-11; 72 hours, CellTiter-Glo; read-out: MV-4-11
Protocol: The 1st Day: Seed the Cells on the Plate
1. The cells were verified that they were in good conditions by observation under microscope;
2. The cells were transferred to a 15 mL centrifuge tube, after centrifuged at 1000 rpm for 5 min, the supernatant was discarded;
3. The complete medium (IMDM+10% FBS) was added, then blown and patted into single cell suspension, counted by Vi-cell cytometer, the cell suspension was adjusted to desired cell density by the complete medium.
4. The cells were inoculated into a 96 well plate, the cell number was 15000/well at 100 μL per well, 100 μL complete medium was added into the black control.
5. 37° C., 5% CO2 culture overnight.
The 2nd Day: Addition of the Drugs
1. 1000× Compound Plate Preparation
1.1. The test compound was prepared into 10 mM working solution by using DMSO. Then the STS was prepared into 2 mM working solution by using DMSO.
1.2. In the round bottom 96 wells plate, the column 2 of row A to H was added into 60 μL 10 mM test compound (or STS) working solution, columns 3-11 were added into 40 μL DMSO, 20 μL drug solution was pipetted from the column 2 to the column 3, blown and patted for a homogeneous mixture; then 20 μL solution was pipetted from the column 3 to the column 4, blown and patted for a homogeneous mixture, sequently, the drug was diluted by 3 times, 10 concentrations in total. The columns 1 and 12 were supplemented with 40 μL of DMSO.
2. Intermediate plate areparation
A sterile V-bottom 96 deep well plate was used and in each well, 495 μL FBS-free PRMI 1640 medium was added, then 5 μL of the diluted compound (or DMSO) in the 1000× compound plate was pipetted into corresponding position of the V-bottom 96 well plate, blown and patted evenly.
3.1. The cell plate was taken out from the incubator and was observed under microscope. The diluted compound or DMSO in the intermediate plate was added into the cell plate, 11 μL each well.
3.2. The cell was continued to be cultured at 37° C., 5% CO2 for 72 hours.
The 5th Day: CellTiter-Glo Detection of the Cell Activity
1. The CellTiter-Glo buffer and the reaction substrate were taken out from the refrigerator, after balanced to r.t., the buffer was poured into a brown bottle containing the substrate, the bottle was upside down to have the substrate powder sufficientaly dissolved.
2. The cell was observed under microscope; the cell plate was balanced to r.t.
3. The prepared CellTiter-Glo was added into the 96 well plate, at 100 μL/well.
4. The cell plate was placed on a shaker for 10 min, followed by standing at r.t. for 10 min.
5. A white seal film was attached to the bottom of the well plate, and the chemiluminescence signal of each well was detected by the Enspire microplate detector.
6. XLfit was used for data processing. Inhibition rate %=(d−c)/(d−b)×100, while d is the signal value of the DMSO treated group, c is the signal value of the compound treated group, b is signal value of the blank control that only containing medium and DMSO without cells. The data was fitted using the f(x)205[fit=(A+((B−A)/(1+((C/x)^∧D))))] equation in the XLfit software.

SMILES	IC50 [1] [nM]	IC50 [2] [nM]	IC50 [3] [nM]
Cn1cc2c(c1C#N)CCN(c1ccc(F)cc1)c1ccc(CS(C)(=O)=O)cc1-2 [Compound 4004, 6-(4-Fluorophenyl)-2-methyl-9-(methylsulfonylmethyl)-2,4,5,6-tetrahydrobenzo[b]pyrrolo[3,4-d]azepin-3-nitrile]	109	184	–
Cn1cc2c(cc1=O)CNC(c1ccc(F)cc1)c1ccc(CS(C)(=O)=O)cc1-2 (centres unmarked) [Compound 4008, 7-(4-fluorophenyl)-2-methyl-10-(methylsulfonemethyl)-6,7-dihydro-2H-benzo[c]pyrido[3,4-e]azepin-3(5H)-ketone formate]	113	28	–
Cn1cc2c(cc1=O)CN=C(c1ccc(Cl)cc1)c1ccccc1-2 [Compound 4010, 7-(4-chlorophenyl)-2-methyl-2H-benzo[c]pyrido[3,4-e]azepin-3(5H)-ketone]	30	43	637
CCS(=O)(=O)Cc1ccc2c(c1)-c1cn(C)c(=O)cc1CN=C2c1ccc(Cl)cc1F [Compound 4013, 7-(4-chloro-2-fluorophenyl)-10-((ethylsulfone)methyl)-2-methyl-2,5-dihydro-3H-benzo[c]pyrido[3,4-e]azepin-3-ketone]	7	2	75
Cn1cc2c(cc1=O)[C@H](CC(N)=O)N=C(c1ccc(F)cc1)c1ccc(CS(C)(=O)=O)cc1-2 [Compound 4014, (S)-2-(7-(4-fluorophenyl)-2-methyl-10-(methylsulfonylmethyl)-3-oxo-3,5-dihydro-2H-benzo[c]pyrido[3,4-e]azepin-5-yl)acetamide]	2	1	292
CCNC(=O)C[C@@H]1N=C(c2ccc(F)cc2)c2ccc(CS(C)(=O)=O)cc2-c2cn(C)c(=O)cc21 [Compound 4015, (S)—N-ethyl-2-(7-(4-fluorophenyl)-2-methyl-10-(methylsulfonemethyl)-3-oxo-3,5-dihydro-2H-benzo[c]pyrido[3,4-e]azepin-5-yl)acetamide]	2	1	69
COc1ccc2c(c1)-c1cn(C)c(=O)cc1CN=C2c1ccc(F)cc1 [Compound 4019, 7-(4-fluorophenyl)-10-methoxy-2-methyl-2,5-dihydro-3H-benzo[c]pyrido[3,4-e]azepin-3-one]	10	37	144
COc1ccc2c(c1)C(c1ccc(F)cc1)=NCc1cc(=O)n(C)cc1-2 [Compound 4020, 7-(4-fluorophenyl)-9-methoxy-2-methyl-2,5-dihydro-3H-benzo[c]pyrido[3,4-e]azepin-3-one]	11	10	134
CCS(=O)(=O)Cc1cnc2c(c1)-c1cn(C)c(=O)cc1CN=C2c1ccc(F)cc1 [Compound 4022, 10-((ethylsulfonyl)methyl)-7-(4-fluorophenyl)-2-methyl-2,5-dihydro-3H-dipyrido[2,3-c: 3′,4′-e]azepin-3-ketone]	12	7	190
CCS(=O)(=O)Nc1ccc2c(c1)-c1cn(C)c(=O)cc1CN=C2c1ccc(Cl)cc1 [Compound 4024, N-(7-(4-chlorophenyl)-2-methyl-3-oxo-3,5-dihydro-2H-benzo[c]pyrido[3,4-e]azepin-3-yl)ethanesulfonamide]	2	1	9
C[C@@H]1N=C(c2ccc(Cl)cc2)c2ccccc2-c2cn(C)c(=O)cc21 [Compound 4025, (S)-7-(4-chlorophenyl)-2,5-dimethyl-2,5-dihydro-3H-benzo[c]pyrido[3,4-e]azepin-3-ketone]	7	3	54
CCS(=O)(=O)Cc1cc2c(cn1)C(c1ccc(Cl)cc1)=NCc1cc(=O)n(C)cc1-2 [Compound 4027, 7-(4-chlorophenyl)-10-((ethylsulfonyl)methyl)-2-methyl-2,5-dihydro-3H-dipyrido[3,4-c:3′,4′-e]azepin-3-ketone]	12	6	128
CCS(=O)(=O)Cc1ccc2c(c1)-c1cn(C)c(=O)cc1CN=C2c1ccc(F)cc1Cl [Compound 4028, 7-(2-chloro-4-fluorophenyl)-10-((ethylsulfone)methyl)-2-methyl-2,5-dihydro-3H-benzo[c]pyrido[3,4-e]azepin-3-ketone]	22	2	161
Cn1cc2c(cc1=O)[C@H](CC(N)=O)N=C(c1ccc(Cl)cc1)c1ncccc1-2 [Compound 4029, (S)-2-(7-(4-chlorophenyl)-2-methyl-3-oxo-3,5-dihydro-2H-dipyrido[2,3-c:3′,4′-e]azepin-5-yl)acetamide]	6	2	69
CCNC(=O)C[C@@H]1N=C(c2ccc(Cl)cc2)c2ncccc2-c2cn(C)c(=O)cc21 [Compound 4030, (S)-2-(7-(4-chlorophenyl)-2-methyl-3-oxo-3,5-dihydro-2H-dipyrido[2,3-c:3′,4′-e]azepin-5-yl)-N-ethyl acetamide]	6	2	17
CCNC(=O)C[C@@H]1N=C(c2ccc(F)cc2)c2c(ccc(OC)c2F)-c2cn(C)c(=O)cc21 [Compound 4035, (S)—N-ethyl-2-(8-fluoro-7-(4-flurophenyl)-9-methoxyl-2-methyl-3-oxo-3,5-dihydro-2H-benzo[c]pyrido[3,4-e]azepin-5-yl)acetamide]	3	1	–
CCNC(=O)C[C@@H]1N=C(c2ccc(F)cc2)c2cc(OC)c(F)cc2-c2cn(C)c(=O)cc21 [Compound 4036, (S)—N-ethyl-2-(10-fluoro-7-(4-flurophenyl)-9-methoxyl-2-methyl-3-oxo-3,5-dihydro-2H-benzo[c]pyrido[3,4-e]azepin-5-yl)acetamide]	5	2	–
CCS(=O)(=O)Cc1ccc2c(c1)C(c1ccc(F)cc1)=NCc1cc(=O)n(C)cc1-2 [Compound 4039, 9-((ethylsulfonyl)methyl)-7-(4-flurophenyl)-2-methyl-2,5-dihydro-3H-benzo[c]pyrido[3,4-e]azepin-3-ketone]	163	204	–
CCS(=O)(=O)Cc1ccc2c(c1)-c1cn(C)c(=O)cc1C1(CC1)N=C2c1ccc(F)cc1 [Compound 4041, 10-((ethylsulfonyl)methyl)-7-(4-flurophenyl)-2-methyl spiro[benzo[c]pyrido[3,4-e]azepin-5,1′-cyclopropane]-3(2H)-ketone]	12	12	–
CNS(=O)(=O)Nc1ccc2c(c1)-c1cn(C)c(=O)cc1[C@H](C)N=C2c1ccc(F)cc1 [Compound 4050, (S)—N-(7-(4-flurophenyl)-2,5-dimethyl-3-oxo-3,5-dihydro-2H-benzo[c]pyrido[3,4-e]azepin-10-yl)methylamine sulfonamide]	17	9	–
CCS(=O)(=O)Cc1ccc2c(c1)-c1cn(C)c(=O)cc1CN=C2c1cc(OC)c(F)cc1Cl [Compound 4096, 7-(2-chloro-4-fluoro-5-methoxylphenyl)-10-((ethylsulfonyl)methyl)-2-methyl-2,5-dihydro-3H-benzo[c]pyrido[3,4-e]azepin-3-ketone]	44	4	–
CCS(=O)(=O)Cc1ccc2c(c1)-c1nn(C)c(=O)cc1C(C)N=C2c1ccc(F)cc1Cl (centres unmarked) [Compound 4097, 7-(2-chloro-4-flurophenyl)-10-((ethylsulfonyl)methyl)-2,5-dimethyl-2,5-dihydro-3H-benzo[c]pyridazino[3,4-e]azepin-3-ketone]	20	3	–
Cn1cc2c(cc1=O)CN=C(c1ccc(F)cc1Cl)c1ccc(CS(C)(=O)=O)cc1-2 [Compound 4098, 7-(2-chloro-4-flurophenyl)-2-methyl-10-((dimethylfulfone)methyl)-2,5-dihydro-3H-benzo[c]pyrido[3,4-e]azepin-3-ketone]	22	3	–
CNS(=O)(=O)Cc1ccc2c(c1)-c1cn(C)c(=O)cc1N(C)N=C2c1ccc(F)cc1 [Compound 4099, 1-(7-(4-flurophenyl)-2,5-dimethyl-3-oxo-3,5-dihydro-2H-benzo[e]pyrido[4,3-c][1,2]diazepin-10-yl)-N-methylmethane sulfamide]	2	0.9	–
CCS(=O)(=O)Cc1ccc2c(c1)-c1cn(C)c(=O)cc1[C@H](C)N=C2c1ccc(F)cc1Cl [Compound 4101, (S)-7-(2-chloro-4-flurophenyl)-10-((ethylsulfonyl)methyl)-2,5-dimethyl-2,5-dihydro-3H-benzo[c]pyrido[3,4-e]azepin-3-ketone]	3	0.7	–
CCS(=O)(=O)Cc1ccc2c(c1)-c1cn(C)c(=O)cc1[C@H](C)N=C2c1cc(OC)c(F)cc1Cl [Compound 4102, (S)-7-(2-chloro-4-fluoro-5-methoxylphenyl)-10-((ethylsulfonyl)methyl)-2,5-dimethyl-2,5-dihydro-3H-benzo[c]pyrido[3,4-e]azepin-3-ketone]	5	0.8	–
CNS(=O)(=O)Cc1ccc2c(c1)-c1cn(C)c(=O)cc1[C@H](C)N=C2c1ccc(F)c(OC)c1 [Compound 4103, (S)-1-(7-(4-fluoro-3-methoxylphenyl)-2,5-dimethyl-3-oxo-3,5-dihydro-2H-benzo[c]pyrido[3,4-e]azepin-10-yl)-N-methylmethane sulfamide]	2	0.6	–
CCS(=O)(=O)Cc1ccc2c(c1)-c1cn(C)c(=O)cc1[C@H](C)N=C2c1ccc(OC)c(F)c1 [Compound 4104, (S)-10-((ethylsulfonyl)methyl)-7-(3-fluoro-4-methoxylphenyl)-2,5-dimethyl-2,5-dihydro-3H-benzo[c]pyrido[3,4-e]azepin-3-ketone]	2	1	–
CCS(=O)(=O)Cc1ccc2c(c1)-c1cn(C)c(=O)cc1[C@H](C)N=C2c1ccncc1 [Compound 4105, (S)-10-((ethylsulfonyl)methyl)-2,5-dimethyl-7-(pyridin-4-yl)-2,5-dihydro-3H-benzo[c]pyrido[3,4-e]azepin-3-ketone]	2	1	–
